Experimental findings from publication PMC10073126, “Levosimendan inhibits disulfide tau oligomerization and ameliorates tau pathology in Tau^P301L-BiFC mice” (Experimental & Molecular Medicine, 2023) are described below.

Data set [1] relates to tau. The experiment in a line: Tau immunoblot of primary hippocampal neuron lysates. Conditions: primary neurons, tauK18^P301L; for Level of disulfide-linked tau oligomers compared to basal: nonreducing SDS-PAGE, control 1.8 ± 0.3-fold. It counts as cell-based, rat. As for the experimental part: (§1) Band intensity was quantified using ImageJ software (NIH). All data were normalized to β-actin.
(§2) Primary hippocampal neurons were isolated from Day 18 embryonic Sprague‒Dawley rat brains as described previously. The neurons were seeded at a density of 3.5 × 10^5 cells per well on a poly-D-lysine-coated 6-well plate and maintained in neurobasal medium at 37 °C in a humidified atmosphere of 5% CO2. The neurobasal medium contained 2% B27 supplement, 0.5 mM GlutaMAX, 100 units/mL penicillin, and 100 μg/mL streptomycin. Every 3 days, 50% of the medium was replaced with fresh neurobasal medium. At DIV10, neurons were incubated with MB, LMTM (3 µM), or levosimendan (10 µM) in the presence of tauK18^P301L (10 µg/mL) for 48 h.
(In general: In western blotting, separated proteins are transferred to a membrane and probed.)

For data set [2], the target named is T1, tauK18 (Homo sapiens, UniProt P10636).
T1 construct: under in vitro conditions using a purified tauK18 fragment; 6xHis; made in house; host or cells: E. coli BL21 (DE3)
T1 sequence (P10636 561-685 limits assumed): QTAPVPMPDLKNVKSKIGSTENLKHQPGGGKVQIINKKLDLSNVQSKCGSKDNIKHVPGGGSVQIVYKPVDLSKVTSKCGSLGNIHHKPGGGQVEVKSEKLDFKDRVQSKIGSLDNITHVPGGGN
Put plainly: TauK18 oligomerization assay in vitro (SDS-PAGE). Format: biochemical. The note with it: 5 h, nonreducing SDS-PAGE, DMSO control 50 ± 1.1%. As to the method:
To induce tau oligomerization, tauK18 (0.5 mg/mL dissolved in PBS, pH 7.4) was incubated with each drug in the presence of DTT (100 μM) and heparin (0.1 mg/mL) at RT for 5 h with vigorous shaking. Then, tau oligomers were separated on 4–20% SDS‒PAGE gels under reducing and nonreducing conditions and visualized by Coomassie blue staining.

Data set [3] has as its system primary hippocampal neurons. Put plainly: NeuO staining, number of neurons and neurite lengths. It counts as cell-based. The note with it: for Number of NeuO-stained live neurons / Neurite length: tauK18^P301L, 48 h; for Number of NeuO-stained live neurons: basal 1925 ± 66, control 943 ± 30; for Neurite length: control 142.8 ± 17.8 μm. As to the method:
as §2
At DIV10, neurons grown on a 96-well plate were treated with MB, LMTM (3 µM), or levosimendan (10 µM) followed by tauK18^P301L activation. After 48 h, the neurons were stained with NueO (50 nM), a neuron-selective probe. NeuO fluorescence (λex = 460–490 nm and λem = 518–580 nm) images were acquired by using Operetta® (PerkinElmer). The number of neurons and total lengths of neurites were quantified by Harmony 3.1 software (PerkinElmer). Error bars represent the standard deviations (S.D.) of four replicate experiments.

Data set [4] deals with Tau^P301L-BiFC mice. The experiment in a line: Novel object recognition test. Format: in vivo, mouse. Conditions: 5 mg/kg i.p., three times a week, 4 months; vehicle TG 0.49, WT 0.74. As to the method: (§3) For drug administration, LMTM and levosimendan were dissolved in PBS containing 40% polyethylene glycol (PEG; Sigma). Nine-month-old Tau^P301L-BiFC mice were intraperitoneally administered each drug for 4 months, three times a week, at a dosage of 5 mg/kg (n = 11 per group). Vehicle-treated Tau^P301L-BiFC mice and age-matched wild-type mice were used as control groups. Behavioral assessments were conducted as described below for one month from the end of drug administration. All mice were sacrificed at the age of 14 months for pathological analysis.
The novel object recognition test was performed as described previously. Briefly, for habituation, mice (n = 9 per group) were individually placed in the center of an open field arena (40 × 40 cm) and could freely explore for 15 min. The next day, in the training trial (familiarization phase), the mice could explore two identical objects in the open field for 10 min. […] The exploration time for the familiar (old) or the new (novel) object during the recognition phase was recorded using a Noldus EthoVision XT video tracking system. Memory was operationally defined by the recognition index calculated by dividing the time an animal spent exploring the novel object or old object by the total time spent exploring objects in the testing period. The exploration time was measured when the mouse pointed toward the object in the vicinity of the object.

The subject of data set [5] is Tau^P301L-BiFC mice. The experiment in a line: Tau immunoblot of RIPA-soluble and RIPA-insoluble brain lysates. The note with it: 5 mg/kg i.p., 4 months; for Level of disulfide-linked tau oligomers in the brain (nonreducing SDS-PAGE): RIPA-soluble brain lysates. Format: in vivo, mouse. As to the method:
as §1, §3
Brains were weighed and suspended in RIPA lysis buffer (Sigma) containing protease and phosphatase inhibitor cocktails. Then, tissues were mechanically disrupted using a cordless mortar and pestle (Sigma) and incubated at 4 °C for 2 h with shaking. The homogenates were centrifuged at 20,000 × g at 4 °C for 20 min. The supernatants were collected as RIPA-soluble fractions and stored at −80 °C. To prepare RIPA-insoluble fractions, the remaining pellets were washed once with RIPA lysis buffer containing 1 M sucrose, resuspended in 2% SDS solution (1 mL per gram of tissue) and incubated at RT for 1 h. The mixtures were centrifuged at 20,000 × g for 1 min at RT. The supernatant was collected as RIPA-insoluble fractions and preserved at −80 °C.

For data set [6], the system named is Tau^P301L-BiFC mice. The experiment in a line: BiFC fluorescence imaging of brain tissue sections. Format: in vivo, mouse. Conditions: 5 mg/kg i.p., 4 months; for Tau-BiFC intensity in the hippocampus compared to vehicle-treated group: hippocampal CA1; for Tau-BiFC intensity in the cortex compared to vehicle-treated group: somatosensory cortex layer V. As to the method: as §3
Brain tissue sections (n = 8 per group) were mounted onto slides. To reduce autofluorescence, brain tissue sections were stained with Sudan Black B solution (70% ethanol containing 0.05% Sudan Black B) for 10 min, washed three times with PBS containing 0.1% Triton X-100 (Sigma), and then washed with distilled water. For counterstaining of nuclei, brain tissues were stained with Hoechst (0.5 μg/mL) for 30 min. BiFC fluorescence (λex = 460–490 nm and λem = 500–550 nm) images were acquired using Axio Scan. Z1 (ZEISS). For quantitative analysis, the mean BiFC fluorescence intensity was measured in the somatosensory cortex (layer V) and hippocampal CA1 from AP;−1.82. To normalize the background fluorescence between the brain samples, the habenular region was used as an internal control. Using ImageJ software (NIH), the region of interest was masked, and the fluorescence intensity value was calculated. Data are shown as the average and standard deviation of the mean fluorescence intensities of brain images from six to eight animals.

For `CN(C)c1ccc2c(c1)Sc1cc(N(C)C)ccc1N2.CS(=O)(=O)O.CS(=O)(=O)O` [LMTM, leucomethylene blue mesylate], in data set [1] (3 μM), the “Level of disulfide-linked tau oligomers compared to basal” value is recorded as 2.4 ± 0.3 fold. Moreover, the “Level of disulfide-linked tau oligomers (of total tau)” value (from here on “Level … (of total tau)”) in data set [2] (100 μM) was determined as 79.2 ± 0.8%. For the same compound, in data set [3] (3 μM), the “Number of NeuO-stained live neurons” value is reported as 1182 ± 76 neurons and the Neurite length is listed as 151.1 ± 24.4 μm. Further, in data set [3] (higher concentrations over 10 μM (data not shown)), the “Neuronal cell death in primary hippocampal neurons” value is “severe neuronal cell death”. Besides, in data set [4], the “Recognition index (RI) for a novel object” value is 0.59. Moreover, the “Level of disulfide-linked tau oligomers in the brain (nonreducing SDS-PAGE)” value in data set [5] is reported as “did not increase or decrease”. In data set [5] (vehicle 1.00), the “Fold change, RIPA-insoluble tau (IB: Tau5)” value amounted to 0.7 ± 0.1 fold; the “Fold change, RIPA-soluble tau phosphorylation at S199” value was 0.6 ± 0.1 fold; the “Fold change, RIPA-soluble tau phosphorylation at S396” value was 0.8 ± 0.2 fold. Also, in data set [6], the “Tau-BiFC intensity in the hippocampus compared to vehicle-treated group” value came to 0.6 ± 0.1 fold and the “Tau-BiFC intensity in the cortex compared to vehicle-treated group” value was found to be 0.7 ± 0.2 fold.

As to `C[C@@H]1CC(=O)NN=C1c1ccc(NN=C(C#N)C#N)cc1` [Levosimendan], the “Level of disulfide-linked tau oligomers compared to basal” value in data set [1] (10 μM) stood at 0.5 ± 0.1 fold. The “Total tau level compared to basal” value in data set [1] (10 μM, 48 h, control 1.5 ± 0.1-fold) turned out to be 1.0 ± 0.1 fold. Also, in data set [1] (10 μM, 48 h, control 1.7 ± 0.1-fold), the “Tau phosphorylation at S199 compared to basal” value is 0.9 ± 0.1 fold. In data set [1] (10 μM, 48 h, control 2.0 ± 0.3-fold), the “Tau phosphorylation at S396 compared to basal” value is 0.9 ± 0.1 fold. Also, in data set [2] (10 μM), the “Level … (of total tau)” value is listed as 15.0 ± 6.0%. For the same compound, in data set [2] (30 μM), the “Level … (of total tau)” value stood at 15.7 ± 7.8%. Further, the “Level … (of total tau)” value in data set [2] (100 μM) came to 12.3 ± 15.0%. For the same compound, in data set [3] (10 μM), the “Number of NeuO-stained live neurons” value was 1650 ± 114 neurons and the Neurite length is on record as 346.8 ± 20.7 μm. Also, in data set [4], the “Recognition index (RI) for a novel object” value was determined as 0.69. Further, in data set [5], the “Level of disulfide-linked tau oligomers in the brain (nonreducing SDS-PAGE)” value is on record as “significantly decreased the high-molecular-weight oligomers”. Also, in data set [5] (vehicle 1.00), the “Fold change, RIPA-insoluble tau (IB: Tau5)” value is recorded as 0.5 ± 0.2 fold; the “Fold change, RIPA-soluble tau phosphorylation at S199” value turned out to be 0.5 ± 0.0 fold; the “Fold change, RIPA-soluble tau phosphorylation at S396” value is 0.5 ± 0.1 fold; the “Fold change, RIPA-soluble total tau (IB: Tau5)” value was “decreased slightly”. In addition, in data set [6], the “Tau-BiFC intensity in the hippocampus compared to vehicle-treated group” value was found to be 0.4 ± 0.2 fold and the “Tau-BiFC intensity in the cortex compared to vehicle-treated group” value is recorded as 0.6 ± 01 fold.
